Reference: US20110034487A1, “CXCR3 ANTAGONISTS” (AMGEN INC., priority 2009, published 2011)

Assays:
[1] = test system: lymphocyte migration toward I-TAC; assay: Lymphocyte migration toward I-TAC; type: cell-based; settings: 100% human plasma, read-out: Migration to ITAC IC50 (nM) 100% Plasma
[2] = Multiple dosing of AMG 487 in humans; type: in vivo, human
From the text: Thus, there remains a need to identify a suitable clinical candidate devoid of the unpredicted accumulation seen with AMG 487. Such compounds are provided herein.

[3] = molecular target: T1, CXCR3 (Homo sapiens, UniProt P49682); assay: [125I]-IP-10 binding assay (CXCR3 binding)
T1 construct: endogenous in cells
T1 sequence (P49682 1-368): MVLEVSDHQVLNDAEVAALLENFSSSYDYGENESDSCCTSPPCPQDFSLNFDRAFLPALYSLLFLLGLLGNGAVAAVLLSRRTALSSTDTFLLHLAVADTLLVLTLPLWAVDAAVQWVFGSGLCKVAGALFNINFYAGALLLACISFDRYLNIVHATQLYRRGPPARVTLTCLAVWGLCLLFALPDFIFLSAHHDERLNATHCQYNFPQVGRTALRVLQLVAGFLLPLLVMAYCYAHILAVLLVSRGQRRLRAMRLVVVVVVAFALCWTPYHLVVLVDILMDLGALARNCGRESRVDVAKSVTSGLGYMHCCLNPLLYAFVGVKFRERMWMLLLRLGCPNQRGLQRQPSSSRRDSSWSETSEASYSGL
Procedure: (§1) Unless otherwise noted, all reagents used are available from commercial sources (e.g., Sigma). Test compounds are diluted in DMSO to a concentration that is 40-times the intended final assay concentration; 5 μL are transferred to each well of a 96-well flat-bottomed polypropylene plate (e.g., from Greiner, Inc.). The cells were resuspended in assay buffer (25 mM Hepes, 80 mM NaCl, 1 mM CaCl2, 5 mM MgCl2, 0.2% bovine serum albumin, pH 7.1, stored at 4° C.) at 5 million cells per mL; 100 μL of this cell suspension is then transferred to each well of a 96-well plate containing the diluted test compounds. ^125I-labelled chemokine (purchased from commercial sources, e.g., Amersham, PE Life Sciences) is diluted in assay buffer to a concentration of approximately 60 pM; 100 μL of this chemokine solution is transferred to each well of a 96-well plate containing compounds and cell suspension. The plates are sealed with commercially available foil plate seals (e.g., from E&K Scientific), and stored at 4° C. for 2 to 4 h, shaking gently. […] The plates are counted on a scintillation counter, such as a Packard TopCount. […] Data were analyzed using commercially available software (e.g., Excel from Microsoft, Prism from GraphPad Software Inc.).

[4] = molecular target: T1, CXCR3; assay: 125I-I-TAC binding assay (CXCR3 binding); settings: 50% human plasma; primary, activated human lymphocytes
Procedure: as §1

[5] = molecular target: T1, CXCR3; assay: HWB receptor occupancy (500 ng/ml ITAC); type: cell-based
[6] = test system: cellular migration into the lung; assay: Cellular migration into the lung following bleomycin challenge; type: in vivo; settings: following bleomycin challenge (FIG. 1)
[7] = molecular target: CYP3A4 (Homo sapiens, UniProt P08684); settings: human hepatocytes and microsomes
Chain of CYP3A4 (P08684 whole entry): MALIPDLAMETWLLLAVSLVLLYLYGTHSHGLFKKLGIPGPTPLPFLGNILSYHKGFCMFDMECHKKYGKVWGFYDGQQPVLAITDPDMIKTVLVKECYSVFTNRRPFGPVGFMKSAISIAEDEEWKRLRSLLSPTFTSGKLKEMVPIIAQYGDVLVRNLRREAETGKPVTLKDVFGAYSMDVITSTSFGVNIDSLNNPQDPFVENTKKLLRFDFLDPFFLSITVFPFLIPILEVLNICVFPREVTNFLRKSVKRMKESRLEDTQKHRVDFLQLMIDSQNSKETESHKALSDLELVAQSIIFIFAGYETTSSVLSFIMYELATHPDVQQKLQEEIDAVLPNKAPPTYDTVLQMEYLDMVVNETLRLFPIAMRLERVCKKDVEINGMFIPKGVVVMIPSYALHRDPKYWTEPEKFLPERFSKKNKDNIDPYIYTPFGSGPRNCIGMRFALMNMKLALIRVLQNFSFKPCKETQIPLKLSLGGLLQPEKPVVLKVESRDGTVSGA

| Structure (SMILES) | IC50 [1] [nM] | Accumulation of the compound upon multiple dosing [2] | IC50 ([3]; [125I]-IP-10 Binding IC50 (nM) 50% Plasma, 50% human plasma, primary, activated human lymphocytes) [nM] | IC50 ([3]; buffer, read-out: [125I]-IP-10 Binding IC50 (nM) Buffer) [nM] | IC50 [4] [nM] | IC50 [5] [nM] | Cellular migration into the lung [6] | CYP3A4 inhibition [7] |
| --- | --- | --- | --- | --- | --- | --- | --- | --- |
| CCOc1ccc(-n2c([C@@H](C)N(Cc3cccnc3)C(=O)Cc3ccc(OC(F)(F)F)cc3)nc3ncccc3c2=O)cc1 [AMG 487, reference compound] | 346 ± 123 | dose-dependent accumulation | – | – | – | – | – | – |
| C[C@H](c1nc2ncccc2c(=O)n1-c1ccc(Cl)cc1)N(CC1CCS(=O)(=O)CC1)C(=O)Cc1ccc(C(F)(F)F)c(F)c1 [Compound 1] | 65 ± 14 | – | 12 ± 5 | 7 ± 2 | 51 ± 20 | 9.8 ± 4.4 | inhibits cellular migration into the lung | – |
| CC(c1nc2ncccc2c(=O)n1-c1ccc(O)cc1)N(Cc1cccnc1)C(=O)Cc1ccc(OC(F)(F)F)cc1 (stereo not drawn) [Compound M2] | – | – | – | – | – | – | – | time-dependent inhibitor of CYP3A4 |
